Measured values from patent publication US4353923A, “Pharmaceutical composition containing a benzofurancarboxamide derivative as the active ingredient” (Kyowa Hakko Kogyo Co., Ltd., priority 1980, dated 1982).

How the values were obtained:
[1] = system: male Wistar rats; experiment: Anti-inflammatory activity: carrageenin edema method; format: in vivo; conditions: Rattus norvegicus, po, 3 hours after carrageenin, read-out: Inhibition ratio (paw swelling, vs control); for inhibition in vivo at 150 mg/kg: 150 mg/kg p.o.
Method: In this experiment, 5 male Wistar rats weighing 140±10 g were used as one group. Sixty minutes after oral administration of each drug to each animal, 0.1 ml of a 1% carrageenin solution as a phlogistic agent was injected into the plantar surface of the right hind paw of the animal to induce inflammation. The volume of the paw was measured before and 3 hours after the injection of the phlogistic agent. Swelling ratio and inhibition ratio in comparison with control group were calculated.

[2] = in vivo; conditions: mouse, po, mice, deaths counted for 7 days
Method: In this example, 3-7 male dd mice weighing 20±1 g were used as one group. Each drug was suspended in a 0.3% CMC solution and orally administered. After the administration, number of dead animals was counted for 7 days to determine LD50 value. As the reference drugs, mepirizole and benzydamine hydrochloride were dissolved in water and orally administered. The drugs and the reference drugs were also administered in the same manner as above in Examples 2-5.

[3] = system: male dd mice; experiment: Analgesic activity: acetic acid writhing; format: in vivo; conditions: Mus musculus, po, 1 h, acetic acid i.p. after 60 min, read-out: Inhibition ratio (writhes, vs control); for inhibition in vivo at 150 mg/kg: 150 mg/kg p.o.
Method: In this experiment, 10 male dd mice weighing 20±1 g were used as one group for examination of analgesic activity. Sixty minutes after oral administration of each drug to each animal, 0.2 ml of a 0.7% acetic acid solution was intraperitoneally administered to the animal. Starting 10 minutes after the administration of acetic acid, the number of writhes occurred in 10 minutes was counted. Average number of writhes and inhibition ratio in comparison with control group were calculated.

[4] = system: male dd mice; experiment: Muscle relaxant activity: slant test; format: in vivo; conditions: 5 mice per group
Method: (§1) In this example, 5 male dd mice weighing 20±1 g were used as one group. Prior to the experiments, mice were placed on the rod having a diameter of 3 cm and rotating at 5 r.p.m. in the reverse direction of the rotation. […] The drugs were orally administered and the muscle relaxant activity with the passage of time was examined by the following tests.
Slant test: Each mouse was placed on a wire net inclined at an angle of 45° to observe whether it falls or not.
(§2) In each test, the drug was considered to have a muscle relaxant activity when the mouse fell.

[5] = system: male dd mice; experiment: Anticonvulsant activity: maximal electroshock convulsion test; format: in vivo; conditions: Mus musculus, po, 1 h, 60 min after administration, read-out: Maximal electroshock convulsion test, inhibition ratio; for responders at 150 mg/kg: 150 mg/kg p.o.; for responders at 300 mg/kg: 300 mg/kg p.o.; for responders at 100 mg/kg: 100 mg/kg p.o.
Excerpt: Anticonvulsant activity was examined according to maximal electroshock convulsion test.
In this experiment, 10 male dd mice weighing 23±1 g were used as one group. Each drug was orally administered to the animals. Sixty minutes after the administration, an electric current (2000 V, 50 mA) was applied to both eyes of the mouse for 0.2 second. Drug activity was judged according to whether tonic extensor seizures were observed or not.

[6] = system: male dd mice; experiment: Muscle relaxant activity: traction test; format: in vivo; conditions: 5 mice per group
Excerpt: as §1
Traction test: Forefeet of the same mouse were placed on a wire to observe whether it falls or not.
as §2

[7] = system: male dd mice; experiment: Muscle relaxant activity: rotating rod test; format: in vivo; conditions: 5 mice per group
Method: as §1
Rotating rod test: The same mouse was placed on the rotating rod to observe whether it falls or not within 2 minutes.
as §2

| SMILES | inhibition in vivo at 150 mg/kg [1] | LD50 at 168 h [2] | inhibition in vivo at 150 mg/kg [3] | Number of dropped mice, slant test ([4]; 150 mg/kg p.o., 1 hr) | Number of dropped mice, slant test ([4]; 150 mg/kg p.o., 2 hr) | Number of dropped mice, slant test ([4]; 150 mg/kg p.o., 3 hr) | Number of dropped mice, slant test ([4]; 300 mg/kg p.o., 1 hr) | Number of dropped mice, slant test ([4]; 300 mg/kg p.o., 2 hr) | Number of dropped mice, slant test ([4]; 300 mg/kg p.o., 3 hr) | responders at 150 mg/kg [5] | responders at 300 mg/kg [5] | Number of dropped mice, traction test ([6]; 150 mg/kg p.o., 1 hr) | Number of dropped mice, traction test ([6]; 150 mg/kg p.o., 2 hr) | Number of dropped mice, traction test ([6]; 150 mg/kg p.o., 3 hr) | Number of dropped mice, traction test ([6]; 300 mg/kg p.o., 1 hr) | Number of dropped mice, traction test ([6]; 300 mg/kg p.o., 2 hr) | Number of dropped mice, traction test ([6]; 300 mg/kg p.o., 3 hr) | Number of dropped mice, rotating rod test ([7]; 150 mg/kg p.o., 1 hr) | Number of dropped mice, rotating rod test ([7]; 150 mg/kg p.o., 2 hr) | Number of dropped mice, rotating rod test ([7]; 150 mg/kg p.o., 3 hr) | further results |
| --- | --- | --- | --- | --- | --- | --- | --- | --- | --- | --- | --- | --- | --- | --- | --- | --- | --- | --- | --- | --- | --- |
| Cc1ccc2oc(C(=O)N(C)C)c(C)c2c1 [Compound (E), N,N,3,5-Tetramethylbenzo-[b]furan-2-carboxamide] | 14.7% | > 1000 mg/kg | 22.6% | 1 mice | 0 mice | 0 mice | 3 mice | 2 mice | 1 mice | 10% | 57.1% | 0 mice | 0 mice | 0 mice | 3 mice | 1 mice | 1 mice | 1 mice | 0 mice | 0 mice | Number of dropped mice, rotating rod test ([7]; 300 mg/kg p.o., 1 hr): 4 mice; Number of dropped mice, rotating rod test ([7]; 300 mg/kg p.o., 2 hr): 2 mice; Number of dropped mice, rotating rod test ([7]; 300 mg/kg p.o., 3 hr): 2 mice |
| COc1ccc2oc(C(=O)N(C)C)c(C)c2c1 [Compound (F), 5-Methoxy-N,N,3-trimethyl-benzo[b]furan-2-carboxamide] | 0% | > 1000 mg/kg | 11% |  |  |  | 4 mice | 2 mice | 1 mice | 30% | 100% | 1 mice | 0 mice | 0 mice | 5 mice | 3 mice | 1 mice | 1 mice | 0 mice | 0 mice | Number of dropped mice, rotating rod test ([7]; 300 mg/kg p.o., 1 hr): 5 mice; Number of dropped mice, rotating rod test ([7]; 300 mg/kg p.o., 2 hr): 5 mice; Number of dropped mice, rotating rod test ([7]; 300 mg/kg p.o., 3 hr): 3 mice |
| Cc1c(C(=O)N(C)C)oc2ccc(Cl)cc12 [Compound (G), 5-Chloro-N,N,3-trimethyl-benzo[b]furan-2-carboxamide] | 45.7% | > 1000 mg/kg | 91.4% | 3 mice | 2 mice | 2 mice | 5 mice | 5 mice | 5 mice |  |  | 3 mice | 3 mice | 2 mice |  |  |  | 5 mice | 4 mice | 3 mice | responders at 50 mg/kg ([5]; 50 mg/kg p.o.): 0%; responders at 75 mg/kg ([5]; 75 mg/kg p.o.): 40%; responders at 100 mg/kg [5]: 100%; Number of dropped mice, traction test ([6]; 75 mg/kg p.o., 1 hr): 1 mice; Number of dropped mice, traction test ([6]; 75 mg/kg p.o., 2 hr): 1 mice; Number of dropped mice, traction test ([6]; 75 mg/kg p.o., 3 hr): 1 mice; Number of dropped mice, rotating rod test ([7]; 75 mg/kg p.o., 1 hr): 3 mice; Number of dropped mice, rotating rod test ([7]; 75 mg/kg p.o., 2 hr): 1 mice; Number of dropped mice, rotating rod test ([7]; 75 mg/kg p.o., 3 hr): 1 mice |
| COc1cc(C)nc(-n2nc(C)cc2OC)n1 [Mepirizole, mepirizole, reference compound] |  | 500 to 1000 mg/kg |  | 3 mice | 1 mice | 0 mice |  |  |  | 85.7% | 100% | 2 mice | 0 mice | 0 mice |  |  |  | 5 mice | 1 mice | 0 mice | inhibition in vivo at 100 mg/kg ([1]; 100 mg/kg p.o.): 29.2%; inhibition in vivo at 200 mg/kg ([1]; 200 mg/kg p.o.): 47%; inhibition in vivo at 50 mg/kg ([3]; 50 mg/kg p.o.): 30.4%; inhibition in vivo at 200 mg/kg ([3]; 200 mg/kg p.o.): 84.7%; responders at 100 mg/kg [5]: 20% |
